Results reported in patent publication US9795139B2, “Molecules having pesticidal utility, and intermediates, compositions, and processes, related thereto” (priority 2015, dated 2017).

Tests used:
Type in all cases: in vivo
[1] = system: Cabbage Looper (Trichoplusia ni, TRIPNI); assay: Bioassay on Cabbage Looper (CL), 128-well diet tray assay; conditions: 168 h, 50 μg/cm^2 on artificial diet, second instar larvae, 25° C., five to seven days, average of eight wells, read-out: CL % Control (or Mortality) rating
Experimental: (§1) Certain molecules disclosed in this document were tested against BAW and CL using procedures described in the following examples. In the reporting of the results, the “BAW & CL Rating Table” was used (See Table Section).
Bioassays on CL were conducted using a 128-well diet tray assay. one to five second instar CL larvae were placed in each well (3 mL) of the diet tray that had been previously filled with 1 mL of artificial diet to which 50 μg/cm^2 of the test molecule (dissolved in 50 μL of 90:10 acetone-water mixture) had been applied (to each of eight wells) and then allowed to dry. Trays were covered with a clear self-adhesive cover, vented to allow gas exchange, and held at 25° C., 14:10 light-dark for five to seven days. Percent mortality was recorded for the larvae in each well; activity in the eight wells was then averaged. The results are indicated in the table entitled “Table ABC: Biological Results” (See Table Section).

[2] = system: Beet Armyworm (Spodoptera exigua, LAPHEG); assay: Bioassay on Beet Armyworm (BAW), 128-well diet tray assay; conditions: 168 h, 50 μg/cm^2 on artificial diet, second instar larvae, 25° C., five to seven days, average of eight wells, read-out: BAW % Control (or Mortality) rating
Experimental: as §1
Bioassays on BAW were conducted using a 128-well diet tray assay. One to five second instar BAW larvae were placed in each well (3 mL) of the diet tray that had been previously filled with approximately 1.5 mL of artificial diet to which 50 μg/cm^2 of the test molecule (dissolved in 50 μL of 90:10 acetone-water mixture) had been applied (to each of eight wells) and then allowed to dry. Trays were covered with a clear self-adhesive cover, vented to allow gas exchange, and held at 25° C., 14:10 light-dark for five to seven days. Percent mortality was recorded for the larvae in each well; activity in the eight wells was then averaged. The results are indicated in the table entitled “Table ABC: Biological Results” (See Table Section).

[3] = system: Yellow Fever Mosquito (Aedes aegypti, AEDSAE); conditions: about 1 day-old larvae, 96-well plate from 4000 ppm DMSO master, 3 days at room temperature
Experimental: Certain molecules disclosed in this document were tested against YFM using procedures described in the following paragraph. In the reporting of the results, the “GPA & YFM Rating Table” was used (See Table Section).
Master plates containing 400 μg of a molecule dissolved in 100 μL of dimethyl sulfoxide (DMSO) (equivalent to a 4000 ppm solution) are used. A master plate of assembled molecules contains 15 μL per well. To this plate, 135 μL of a 90:10 water/acetone mixture is added to each well. A robot is programmed to dispense 15 μL aspirations from the master plate into an empty 96-well shallow plate (“daughter” plate). There are 6 reps (“daughter” plates) created per master. The created “daughter” plates are then immediately infested with YFM larvae.
The day before plates are to be treated, mosquito eggs are placed in Millipore water containing liver powder to begin hatching (4 g. into 400 mL). After the “daughter” plates are created using the robot, they are infested with 220 μL of the liver powder/larval mosquito mixture (about 1 day-old larvae). After plates are infested with mosquito larvae, a non-evaporative lid is used to cover the plate to reduce drying. Plates are held at room temperature for 3 days prior to grading. After 3 days, each well is observed and scored based on mortality. The results are indicated in the table entitled “Table ABC: Biological Results” (See Table Section).

SMILES | mortality at 50 µg/cm2 [1] | mortality at 50 µg/cm2 [2] | YFM % Control (or Mortality) rating [3]
O=C(N[C@@H]1CON(CC(F)(F)F)C1=O)c1cc(NC(=O)C2C(c3ccc(Cl)c(Cl)c3)C2(Cl)Cl)ccc1Cl (stereo in doubt) [Molecule F79, trans-2-Chloro-5-(2,2-dichloro-3-(3,4-dichlorophenyl)cyclopropane-1-carboxamido)-N—((R)-3-oxo-2-(2,2,2-trifluoroethyl)isoxazolidin-4-yl)benzamide] | 50 to 100% | 50 to 100% | A (80-100)
N#CC1(NC(=O)c2cc(NC(=O)[C@H]3[C@H](c4cc(Cl)c(Cl)c(Cl)c4)C3(Cl)Cl)ccc2Cl)CC1 [Molecule F63, 2-Chloro-N-(1-cyanocyclopropyl)-5-((1R,3R)-2,2-dichloro-3-(3,4,5-trichloro-phenyl)cyclopropane-1-carboxamido)benzamide] | 50 to 100% | 50 to 100% | A (80-100)
COCC(=O)N1CC(NC(=O)c2cc(NC(=O)[C@H]3[C@H](c4cc(Cl)cc(Cl)c4)C3(Cl)Cl)ccc2Cl)C1 (relative stereo) [PF14, trans-2-Chloro-5-(2,2-dichloro-3-(3,5-dichlorophenyl)cyclopropane-1-carboxamido)-N-(1-(2-methoxyacetyl)azetidin-3-yl)benzamide] | 50 to 100% | 50 to 100% | A (80-100)
O=C(NC1CC(F)(F)C1)c1cc(NC(=O)[C@H]2[C@H](c3ccc([N+](=O)[O-])cc3)C2(Cl)Cl)ccc1Cl (relative stereo) [Molecule F69, trans-2-chloro-5-(2,2-dichloro-3-(4-nitrophenyl)cyclopropane-1-carboxamido)-N-(3,3-difluorocyclobutyl)benzamide] | 50 to 100% | 50 to 100% | A (80-100)
O=C(NN1CCN(CC(F)(F)F)C1=O)c1cc(NC(=O)C2C(c3cc(Cl)cc(Cl)c3)C2(Cl)Cl)ccc1Cl (stereo not drawn) [PF44, trans-2-Chloro-5-(2,2-dichloro-3-(3,5-dichlorophenyl)cyclopropane-1-carbox-amido)-N-(2-oxo-3-(2,2,2-trifluoroethyl)imidazolidin-1-yl)benzamide] | 50 to 100% | 50 to 100% | A (80-100)
O=C(N[C@@H]1CON(CC(F)(F)F)C1=O)c1cc(NC(=O)C2C(c3cc(Cl)cc(Cl)c3)C2(Cl)Cl)ccc1Cl (stereo partly drawn) [PF28, trans-2-Chloro-5-(2,2-dichloro-3-(3,5-dichlorophenyl)cyclopropane-1-carbox-amido)-N—((R)-3-oxo-2-(2,2,2-trifluoroethyl)isoxazolidin-4-yl)benzamide] | 50 to 100% | 50 to 100% | A (80-100)
N#CC1(NC(=O)c2cc(NC(=O)[C@H]3[C@H](c4cc(Cl)cc(Br)c4)C3(Cl)Cl)ccc2Cl)CC1 (relative stereo) [PF4, trans-5-(3-(3-Bromo-5-chlorophenyl)-2,2-dichlorocyclopropane-1-carboxamido)-2-chloro-N-(1-cyanocyclopropyl)benzamide] | 50 to 100% | 50 to 100% | A (80-100)
CCNC(=O)C1(NC(=O)c2cc(NC(=O)C3C(c4cc(Cl)cc(Cl)c4)C3(Cl)Cl)ccc2Cl)CC1 (stereo not drawn) [PF43, trans-2-Chloro-5-(2,2-dichloro-3-(3,5-dichlorophenyl)cyclopropane-1-carbox-amido)-N-(1-(ethylcarbamoyl)cyclopropyl)benzamide] | 50 to 100% | 50 to 100% | A (80-100)
O=C(NC1CC(F)(F)C1)c1cc(NC(=O)[C@H]2[C@H](c3ccc(C(F)(F)F)cc3)C2(Cl)Cl)ccc1Cl (relative stereo) [Molecule F22, trans-2-Chloro-5-(2,2-dichloro-3-(4-(trifluoromethyl)phenyl)cyclopropanecarboxamido)-N-(3,3-difluorocyclobutyl)benzamide] | 50 to 100% | 50 to 100% | A (80-100)
O=C(NC1CN(C(=O)CC(F)(F)F)C1)c1cc(NC(=O)[C@H]2[C@H](c3cc(Cl)cc(Cl)c3)C2(Cl)Cl)ccc1Cl (relative stereo) [PF12, trans-2-Chloro-5-(2,2-dichloro-3-(3,5-dichlorophenyl)cyclopropane-1-carboxamido)-N-(1-(3,3,3-trifluoropropanoyl)azetidin-3-yl)benzamide] | 50 to 100% | 50 to 100% | A (80-100)
O=C1CCC(NC(=O)c2cc(NC(=O)[C@H]3[C@H](c4ccc(F)c(Cl)c4)C3(Cl)Cl)ccc2Cl)CC1 (relative stereo) [Molecule F81, trans-2-Chloro-5-(2,2-dichloro-3-(3-chloro-4-fluorophenyl)cyclopropane-1-carboxamido)-N-(4-oxocyclohexyl)benzamide] | 50 to 100% | 50 to 100% | A (80-100)
N#CC1(NC(=O)c2cc(NC(=O)[C@H]3[C@H](c4cc(Cl)cc(Cl)c4)C3(Cl)Cl)ccc2Cl)CC1 [Molecule F75, 2-Chloro-N-(1-cyanocyclopropyl)-5-((1R,3R)-2,2-dichloro-3-(3,5-dichloro-phenyl)cyclopropane-1-carboxamido)benzamide] | – | – | A (80-100)
Cc1c(Cl)cc([C@H]2[C@H](C(=O)Nc3ccc(Cl)c(C(=O)NC4(C#N)CC4)c3)C2(Cl)Cl)cc1Cl (relative stereo) [Molecule F49, trans-2-Chloro-N-(1-cyanocyclopropyl)-5-(2,2-dichloro-3-(3,5-dichloro-4-methylphenyl)cyclopropanecarboxamido)benzamide] | 50 to 100% | 50 to 100% | –
N#CC1(NC(=O)c2cc(NC(=O)[C@H]3[C@H](c4cc(Br)cc(Br)c4)C3(Cl)Cl)ccc2Cl)CC1 (relative stereo) [Molecule F29, trans-2-Chloro-N-(1-cyanocyclopropyl)-5-(2,2-dichloro-3-(3,5-dibromophenyl)cyclopropanecarboxamido)benzamide] | 50 to 100% | 50 to 100% | –
N#CC1(NC(=O)c2cc(NC(=O)[C@H]3[C@H](c4ccc(C(F)(F)F)cc4)C3(Cl)Cl)ccc2Cl)CC1 (relative stereo) [Molecule F23, trans-2-Chloro-N-(1-cyanocyclopropyl)-5-(2,2-dichloro-3-(4-(trifluoromethyl)phenyl)cyclopropanecarboxamido)benzamide] | 50 to 100% | 50 to 100% | –
O=C(NC1CC(F)(F)C1)c1cc(NC(=O)[C@H]2[C@H](c3cc(Cl)c(Cl)cc3Cl)C2(Cl)Cl)ccc1Cl (relative stereo) [Molecule F20, trans-2-Chloro-5-(2,2-dichloro-3-(2,4,5-trichlorophenyl)cyclopropanecarboxamido)-N-(3,3-difluorocyclobutyl)benzamide] | 50 to 100% | 50 to 100% | –
O=C(NC1CN(C(=O)C(F)(F)F)C1)c1cc(NC(=O)[C@H]2[C@H](c3cc(Cl)cc(Cl)c3)C2(Cl)Cl)ccc1Cl (relative stereo) [Molecule F60, trans-2-chloro-5-(2,2-dichloro-3-(3,5-dichlorophenyl)cyclopropanecarboxamido)-N-(1-(2,2,2-trifluoroacetyl)azetidin-3-yl)benzamide] | 50 to 100% | 50 to 100% | –
O=C(NC1CC(F)(F)C1)c1cc(NC(=O)[C@H]2[C@H](c3cc(Br)cc(Br)c3)C2(Cl)Cl)ccc1Cl (relative stereo) [Molecule F28, trans-2-Chloro-5-(2,2-dichloro-3-(3,5-dibromophenyl)cyclopropanecarboxamido)-N-(3,3-difluorocyclobutyl)benzamide] | 50 to 100% | 50 to 100% | –
